From US7094770B2, “3′-or 2′-hydroxymethyl substituted nucleoside derivatives for treatment of hepatitis virus infections” (Pharmasset, Ltd., priority 2000, dated 2006)
Read-outs that look alike come from different tables or passages of the source.

Legend:
[1] = Cytotoxicity in PBM cells; assay type: cell-based, human; settings: human
Protocol: (§1) We also perform toxicity assays by measuring the inhibition of uptake of […] dye by treated cells. These assays are done in 96 well plates. After the standard 10 day treatment regimen medium is removed and PBS containing MTS dye added to each well. After a 2 hour incubation the absorbance of the metabolized product is measured at 490 nm.
(§2) Human PBM cells from healthy donors, seronegative for HIV-1 and HBV, are isolated by a single-step Ficoll-Hypaque discontinuous gradient centrifugation and propagated as described previously (Schinazi et al., Antimicrobial Agents Chemother., 1990, 34:1061; 1992, 36:2423; 1993, 37:875). Compounds are screened for activity against HIV-1 and cytotoxicity by a protocol reported previously reported by Schinazi, et al. The prototype strain of HIV-1LAI obtained from the Centers for Disease Control and Prevention, Atlanta, Ga., is used as the standard virus for the studies in human PBM cells.

[2] = Cytotoxicity in HepG2 cells; assay type: cell-based; settings: human
Protocol: as §1

[3] = test system: HIV-1; test: Anti-HIV evaluation in human PBM cells; assay type: cell-based; settings: for EC50: HIV-1
Text: as §2

[4] = test system: HBV; test: Cell culture assay for anti-HBV activity (2.2.15 cells, HBV DNA in medium by Southern blot); assay type: cell-based, Hepatitis B virus; settings: for Antiviral activity (in words): virus not named
Text: We follow the protocol described by Korba and Gerin(Antiviral Res., 1992, 19:55) and Pai et al. (Antimicrobial Agents Chemother., 1996, 40:380) which is used widely in the field. The HepG 2 2.2.15 cells contain a stably integrated HBV genome, the transcript from which serves as a template for viral replication. The cells produce virions which are elaborated into the medium. The production of the virion DNA is monitored by analysis of medium by Southern blotting. Drugs which inhibit viral replication reduce the levels of virion DNA in the medium, relative to controls.
Confluent cells in 24 well tissue culture dishes are treated with test compounds starting at 1 nM and extending logarithmically to 10 μM (1 nM, 3.2, 10 nM, 32, 100 nM, 1 μM, 10 μM […]). Medium is changed […] every 3 days and DNA extracted from the 3, 6, and […] day samples. The virions are concentrated by polyethylene glycol precipitation (equal volume addition of PEG 8000). After cooling on ice the samples are spun and the pellets treated with SDS and Proteinase K followed by Phenol:Chloroform extraction and ethanol precipitation of the DNA. The DNA is analyzed for HBV sequences by Southern hybridization. The probe used for the analysis is a ^32P labeled Eco RI fragment from the HBV clone described by Korba et al. 3TC is used as a positive control compound with known activity against HBV.
System: The most widely used system for the study of anti-HBV agents is the hepatoma cell culture system with the HBV genome. These cells are designated as the 2.2.15 cells, AD38 cells and AD79 cells. The 2.2.15 cells were generated by the transfection of the human hepatoma cells—HepG2 with HBV DNA. (Sells, et al., Proc. Natl. Acad. Sci. USA 84:1005–1009, 1987) HBV viral replication takes place in these cells. The HBV replication can be monitored intracellularly as well as extracellularly in these cells.
Assay for Anti-HBV agents: 2.215 cells are grown in multi-well dishes in RPMI medium supplemented with 4% fetal bovine serum. After 3 to 4 days of growing the cells, they are treated with varying concentrations of the test compound(s). The test compounds are dissolved in DMSO or sterile water. Cultures without the addition of the test compounds serve as controls. The addition of the test compound(s) is repeated at 3-day intervals. The medium is changed and replaced with appropriate concentration of the test compound. At the end of the 9-day treatment period, the culture medium is harvested and processed for viral DNA. The viral DNA thus obtained is analyzed by Southern blot analysis. After the Southern transfer, the blot is subjected to hybridization to an HBV specific probe to detect HBV DNA. The hybriodization is carried out overnight. After the hybridization, free probe is removed by washing of the blots. The specific hybridization is visualized by autoradiography. Inhibition produced by the test compound is calculated with reference to the levels of HBV DNA in the control samples.

[5] = Cytotoxicity in CEM cells; assay type: cell-based; settings: human
Protocol: as §1

[6] = Cytotoxicity in Vero cells; assay type: cell-based; settings: African green monkey
Protocol: as §1

[7] = test system: PBM cells; test: Cytotoxicity in PBM cells; assay type: cell-based, human
Protocol: as §1, §2

[8] = test system: HIV; settings: literature; cited from earlier work
[9] = Human immunodeficiency virus 1, PBMC
[10] = Hepatitis B virus, read-out: Anti-HBV EC50

In the case of `Nc1ccn(C2OC(CO)C(CO)C2F)c(=O)n1` (stereo not shown) [Compound 7 (Series 2)], the IC50 [1] is reported as 48.8 µM, the IC50 at 10 day [2] is reported as greater than 100 µM and the “Inhibition of HIV replication (in words)” value [3] is reported as “potent inhibitors”. The EC50 [3, 9] was 2.6 µM, the “Inhibition of HBV replication (in words)” value [4] was “potent inhibitors” and the EC50 [4, 10] was 0.04 µM. For the same compound, the IC50 at 10 day [5] was 5.1 µM and the IC50 at 10 day [6] was 56 µM.
Work on `Nc1ncnc2c1ncn2C1OC(CO)C(CO)C1F` (stereo not shown) [Compound 23 (Series 2)] yielded an IC50 [1] greater than 100 µM, an IC50 at 10 day [2] greater than 100 µM and an EC50 [3, 9] of 95.4 µM. For the same compound, the EC50 [4, 10] was 1.04 µM, the IC50 at 10 day [5] was greater than 100 µM and the IC50 at 10 day [6] was greater than 100 µM.
Work on `CNC1C(CO)OC(n2ccc(=O)[nH]c2=O)C1F` (stereo not shown) [Compound 69 (Series 2)] yielded an IC50 [1] greater than 100 µM, an EC50 [3, 9] greater than 100 µM and an EC50 [4, 10] greater than 10 µM. For the same compound, the IC50 at 10 day [5] was greater than 100 µM and the IC50 at 10 day [6] was greater than 100 µM.
For `CNC1C(CO)OC(n2ccc(N)nc2=O)C1F` (stereo not shown) [Compound 70 (Series 2)], the IC50 [1] was greater than 100 µM, the “Inhibition of HIV replication (in words)” value [3] was “potent inhibitors” and the EC50 [3, 9] was 2.4 µM. For the same compound, the “Inhibition of HBV replication (in words)” value [4] was “potent inhibitors”, the EC50 [4, 10] was no more than 10 µM and the IC50 at 10 day [5] was 109 µM. The IC50 at 10 day [6] was greater than 100 µM.
In the case of `Cc1cn(C2CC(CO)=NO2)c(=O)[nH]c1=O` (stereo not shown) [Compound 28 (Series 2)], the IC50 [1] is reported as greater than 100 µM, the EC50 [3, 9] is reported as greater than 100 µM and the EC50 [4, 10] is reported as greater than 10 µM. For the same compound, the IC50 at 10 day [5] was greater than 100 µM and the IC50 at 10 day [6] was greater than 100 µM.
In the case of `Nc1nc(=O)n(C2OC(CO)C(CO)C2F)cc1F` (stereo not shown) [Compound 10 (Series 2)], the IC50 [1] is reported as greater than 100 µM, the IC50 at 10 day [2] is reported as greater than 100 µM and the “Inhibition of HIV replication (in words)” value [3] is reported as “potent inhibitors”. For the same compound, the EC50 [3, 9] was 3.3 µM, the “Inhibition of HBV replication (in words)” value [4] was “potent inhibitors” and the EC50 [4, 10] was 0.13 µM. The IC50 at 10 day [5] was greater than 100 µM and the IC50 at 10 day [6] was greater than 100 µM.
In the case of `CC1C(CO)OC(n2ccc(N)nc2=O)C1F` (stereo not shown) [Compound 20 (Series 2)], the IC50 [1] is reported as greater than 100 µM, the “Inhibition of HIV replication (in words)” value [3] is reported as “potent inhibitors” and the EC50 [3, 9] is reported as greater than 100 µM. The “Inhibition of HBV replication (in words)” value [4] was “potent inhibitors”, the EC50 [4, 10] was greater than 10 µM and the IC50 at 10 day [5] was greater than 100 µM. For the same compound, the IC50 at 10 day [6] was greater than 100 µM.
`CNC1C(CO)OC(n2cc(C)c(=O)[nH]c2=O)C1F` (stereo not shown) [Compound 68 (Series 2)] showed an IC50 [1] greater than 100 µM, an EC50 [3, 9] greater than 100 µM and an EC50 [4, 10] greater than 10 µM. The IC50 at 10 day [5] was greater than 100 µM and the IC50 at 10 day [6] was greater than 100 µM.
With `Cc1cn(C2CC(CO)C(CO)O2)c(=O)[nH]c1=O` (stereo not shown) [Compound 20 (Series 1)] the IC50 [1] was greater than 100 µM, the EC50 [3] was 0.8 µM and the EC50 ([4]; read-out: Anti-HBV EC50) was 0.23 µM. For the same compound, the “Antiviral activity (in words)” value [4] was “moderate activity”, the IC50 at 10 day [5] was greater than 100 µM and the IC50 at 10 day [6] was greater than 100 µM.
Work on `CCOP(=O)(CCC1=NOC(n2cc(C)c(=O)[nH]c2=O)C1)OCC` (stereo not shown) [Compound 33 (Series 2)] yielded an IC50 [1] greater than 100 µM, an EC50 [3, 9] greater than 100 µM and an EC50 ([4]; Hepatitis B virus, read-out: Anti-HBV EC50 (μM)) greater than 10 µM. The IC50 at 10 day [5] was greater than 100 µM and the IC50 at 10 day [6] was greater than 100 µM.
In the case of `Cc1cn(C2OC(CO)C(CO)C2F)c(=O)[nH]c1=O` (stereo not shown) [Compound 1 (Series 2)], the IC50 [1] is reported as greater than 100 µM, the EC50 [3, 9] is reported as greater than 100 µM and the EC50 [4, 10] is reported as greater than 10 µM.
`Cc1cn(C2CC3COCC3O2)c(=O)[nH]c1=O` (stereo not shown) [Compound 1 (Series 1)] gave an IC50 [1] greater than 100 µM, an EC50 [3, 9] greater than 100 µM and an EC50 [4, 10] greater than 10 µM. The IC50 at 10 day [6] was greater than 100 µM.
For `Cc1cn(C2OC(CO)C(CO)C2F)c(=O)[nH]c1=O` (stereo not shown) [Compound 12 (Series 2)], the IC50 [7] was greater than 100 µM, the EC50 [3] was greater than 100 µM and the EC50 ([4]; read-out: Anti-HBV EC50) was less than 10 µM. The “Antiviral activity (in words)” value [4] was “moderate activities”, the IC50 at 10 day [5] was greater than 100 µM and the IC50 at 10 day [6] was greater than 100 µM.
In the case of `Nc1ncnc2c1ncn2[C@H]1C[C@H](CO)[C@@H](CO)O1` [2′,3′-dideoxy-3′-hydroxymethyl-adenosine], the “Activity against HIV (in words)” value [8] is listed as “good activity”.
